Source: PubChem BioAssay (NCI)
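Test compounds were applied to cells in 96-well plates for 48 hours at 5 doses. At the TGI there is no net growth.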

Columns and labels:
Test in all cases: NCI tumour cell line growth inhibition, 48 h
KM12 colon = system: KM12 colon
T-47D breast = system: T-47D breast
M14 melanoma = system: M14 melanoma
MDA-N = system: MDA-N
SK-MEL-5 melanoma = system: SK-MEL-5 melanoma
HOP-62 NSCLC = system: HOP-62 NSCLC
SN12C renal = system: SN12C renal
UO-31 renal = system: UO-31 renal
SNB-19 CNS = system: SNB-19 CNS
K-562 leukemia = system: K-562 leukemia
RPMI-8226 leukemia = system: RPMI-8226 leukemia
RXF 393 renal = system: RXF 393 renal

Row | SMILES | TGI (KM12 colon) [µM] | TGI (T-47D breast) [µM] | TGI (M14 melanoma) [µM] | TGI (MDA-N) [µM] | TGI (SK-MEL-5 melanoma) [µM] | TGI (HOP-62 NSCLC) [µM] | TGI (SN12C renal) [µM] | TGI (UO-31 renal) [µM] | TGI (SNB-19 CNS) [µM] | TGI (K-562 leukemia) [µM] | TGI (RPMI-8226 leukemia) [µM] | TGI (RXF 393 renal) [µM]
1 | O=[N+]([O-])c1ccc(-c2csc(N=Nc3c(O)[nH]c4ccccc34)n2)cc1 | > 100 | > 100 | 36.4 | > 100 | > 100 | > 100 | 96.5 | 39.2 | > 100 | – | – | –
2 | CC(=O)OCc1c(O)c2c([nH]c1=O)CCc1ccccc1-2 | 109 | – | – | – | 177 | > 350 | 155 | – | > 350 | > 350 | > 350 | 105
3 | CCOC(=O)C12CCC(=O)N1N(C)c1ncccc1N2 (centres undefined) | > 100 | > 100 | > 100 | > 100 | > 100 | > 100 | – | > 100 | > 100 | > 100 | > 100 | > 100
4 | C=C1C(C(=O)OC)[C@H]1C(=O)OC (some centres undefined) | > 100 | > 100 | > 100 | > 100 | > 100 | > 100 | > 100 | > 100 | > 100 | – | > 100 | > 100
5 | COC(=O)C1=C(C)NC(=O)N2[C@@H](CCOCc3ccccc3)CC[C@@H]12 | > 50 | 49.1 | > 50 | > 50 | > 50 | > 50 | – | > 50 | > 50 | > 50 | > 50 | > 50
6 | C=C1C2CCC3C4(C)CCCC(C)(C(=O)O)C4CCC3(C2)C1OC(=O)/C(C)=C/C (centres undefined) | 35.1 | > 100 | 45.1 | 68.2 | 75.6 | > 100 | 62.6 | 52.9 | – | – | – | 34.2
7 | Cc1nc2c(c(N3CCN(C)CC3)n1)Cc1ccccc1-2 | > 100 | > 100 | > 100 | > 100 | > 100 | – | – | 62.8 | 74.6 | > 100 | > 100 | > 100
8 | O=C(O)/C=C/c1ccc(Oc2ccccc2C(=O)O)o1 | > 10 | > 10 | > 10 | > 10 | > 10 | > 10 | > 10 | – | > 10 | > 10 | > 10 | –
9 | NC(=S)N1N=C2CCCCCC[C@@H]2[C@H]1c1ccccc1 | > 100 | – | > 100 | – | > 100 | > 100 | > 100 | > 100 | > 100 | > 100 | 45 | > 100
10 | COc1ccc(CCN2CCN(CCCc3ccccc3)CC2)cc1 | > 100 | > 100 | > 100 | > 100 | 56.9 | > 100 | > 100 | > 100 | > 100 | > 100 | > 100 | –
11 | O=[N+]([O-])c1nccn1CC(O)c1ccccc1 (centres undefined) | > 100 | – | > 100 | – | > 100 | > 100 | > 100 | > 100 | > 100 | > 100 | > 100 | > 100
12 | C=CCC1(C(=O)OC)CCC/C(=N\O)C1 (centres undefined) | > 10 | > 10 | > 10 | > 10 | > 10 | > 10 | > 10 | – | > 10 | > 10 | > 10 | –
13 | Cc1ccc2nc3ccccc3c(C3C4C(=O)N(c5ccc(F)cc5)C(=O)C4ON3C(C(N)=O)c3ccccc3)c2c1 (centres undefined) | > 100 | > 100 | > 100 | – | – | > 100 | > 100 | > 100 | > 100 | > 100 | 77.6 | > 100
14 | CCCCN(CC)C(=O)C(=O)Cc1nc2ccc(C(=O)c3ccccc3)cc2[nH]c1=O | > 100 | – | > 100 | – | > 100 | > 100 | > 100 | > 100 | > 100 | > 31.6 | > 31.6 | 92
15 | COc1ccc(S(=O)(=O)Nc2ccc(-c3csc(N4C(=O)/C(=C/c5ccccc5[N+](=O)[O-])N=C4c4ccccc4)n3)cc2)cc1Cl | > 100 | 75.2 | > 100 | > 100 | > 100 | > 100 | > 100 | 73.8 | > 100 | > 100 | – | > 100
16 | O=c1[nH]c(Nc2ccc(Br)c(C(F)(F)F)c2)nc2nc[nH]c12 | > 100 | > 100 | > 100 | > 100 | 71.8 | > 100 | > 100 | 77.4 | > 100 | – | > 100 | –
17 | O=S1(=O)c2ccccc2N(O)C2=NCCN21 | > 100 | – | > 100 | – | > 100 | > 100 | > 100 | > 100 | > 100 | > 100 | > 100 | > 100
18 | COC(=O)C1=CO[C@@H](C)[C@@H]2Cn3ccc4c5ccccc5nc-4c3C[C@H]12 | – | – | > 100 | – | > 100 | > 100 | > 100 | > 100 | > 100 | > 100 | > 100 | > 100
19 | Cc1nc(OCc2ccccc2)c2ncn(CCO)c2n1 | > 100 | – | > 100 | > 100 | > 100 | – | > 100 | > 100 | > 100 | – | > 100 | > 100
20 | COC(=O)c1ccc(NCc2cc(OC)ccc2OC)cc1 | > 100 | – | > 100 | > 100 | > 100 | – | – | > 100 | > 100 | > 100 | > 100 | –
21 | O=P1(c2ccccc2)C(c2ccccc2)CCC1c1ccccc1 (centres undefined) | > 100 | – | > 100 | > 100 | > 100 | > 100 | > 100 | > 100 | > 100 | > 100 | 78.2 | > 100
22 | Fc1cc(C2=Nn3c(COc4ccccc4Cl)nnc3S/C2=C\c2ccc(Cl)cc2)c(Cl)cc1Cl | 19.6 | > 100 | 17 | 6.23 | 19 | > 100 | – | 93.8 | – | > 100 | > 100 | 28

Row | SMILES | TGI (KM12 colon) [µM] | TGI (T-47D breast) [µM] | TGI (M14 melanoma) [µM] | TGI (MDA-N) [µM] | TGI (SK-MEL-5 melanoma) [µM] | TGI (HOP-62 NSCLC) [µM] | TGI (SN12C renal) [µM] | TGI (UO-31 renal) [µM] | TGI (SNB-19 CNS) [µM] | TGI (K-562 leukemia) [µM] | TGI (RPMI-8226 leukemia) [µM] | TGI (RXF 393 renal) [µM]
23 | COc1ccc(N2C(=O)C3CC(c4ccc(Br)cc4)c4c([nH]c5ccccc45)C3C2=O)cc1 (centres undefined) | > 100 | – | > 100 | – | 35.5 | 11.5 | 15.2 | 27.1 | 10.5 | 27.8 | > 100 | –
24 | O=C1CCCCCCC2=C1C(Sc1ccccc1)CC2 (centres undefined) | > 100 | – | > 100 | – | > 100 | > 100 | 42.3 | 92.1 | > 100 | > 100 | 95.5 | 48.6
25 | ClCc1nc2ccccc2[nH]1 | > 100 | > 100 | > 100 | – | > 100 | > 100 | > 100 | > 100 | > 100 | > 100 | > 100 | > 100
26 | Cc1ccc2c(c1)nc1n2C(c2c(F)cccc2F)SC1 (centres undefined) | > 100 | > 100 | > 100 | > 100 | – | > 100 | > 100 | > 100 | > 100 | > 100 | > 100 | 96.4
27 | OC1NC2Nc3ccccc3NC2NC1O (centres undefined) | > 100 | > 100 | > 100 | – | > 100 | > 100 | > 100 | – | > 100 | > 100 | – | > 100
28 | Nc1nc(Cl)cc(NCC2(CCO)CCC2)n1 | > 100 | > 100 | – | > 100 | > 100 | > 100 | > 100 | > 100 | > 100 | > 100 | > 100 | > 100
29 | COc1c2c(c3c(c1OC)c(=O)c1ccccc1n3C)OCO2 | > 100 | > 100 | > 100 | > 100 | > 100 | > 100 | > 100 | > 100 | > 100 | > 100 | > 100 | –
30 | CCCCCCN(CCCCCC)CCC(=O)c1ccc2cc(Br)c3ccccc3c2c1 | 52.9 | 60.5 | > 100 | – | 96.1 | > 100 | > 100 | > 100 | > 100 | > 100 | > 100 | 64.3
31 | O=[N+]([O-])c1ncc(N(CCO)CCO)s1 | > 100 | 81.8 | > 100 | > 100 | – | > 100 | > 100 | > 100 | > 100 | 57.5 | 44.8 | 33.4
32 | COc1ccc(C2SCC(=O)N2c2ccc(-n3c(-c4ccccc4)nc4ccccc4c3=O)cc2)cc1 (centres undefined) | > 100 | > 100 | > 100 | – | > 100 | > 100 | > 100 | > 100 | > 100 | > 100 | > 100 | –
33 | COC(=O)C1CCC(=O)N1C(c1ccc(OC)cc1)c1cc(OC)c(OC)c(OC)c1 (centres undefined) | 1.12 | > 100 | 21.6 | 1.97 | 3.43 | > 100 | > 100 | > 100 | > 100 | > 75.8 | – | 0.361
34 | COc1ccc(/C=C2\N=C(N3CCCC(CO)C3)NC2=O)cc1 (centres undefined) | > 100 | > 100 | > 100 | > 100 | > 100 | > 100 | > 100 | > 100 | > 100 | – | > 100 | > 100
35 | C[C@H](Nc1nc(N)c(N=O)c(=O)n1C)C(=O)O | > 10 | > 10 | > 10 | > 10 | > 10 | > 10 | > 10 | – | > 10 | > 10 | > 10 | > 10
36 | NC1=Nc2ccccc2Sc2nncn21 | > 100 | > 100 | > 100 | – | > 100 | > 100 | > 100 | > 100 | > 100 | > 100 | > 100 | > 100
37 | Cc1c(NC(=S)Nc2ccc([N+](=O)[O-])cc2)c(=O)n(-c2ccccc2)n1C | > 100 | – | > 100 | > 100 | > 100 | > 100 | – | > 100 | > 100 | > 100 | > 100 | > 100
38 | O=C1C(Cl)=C(Cl)C(=O)C(CCNc2nccs2)=C1Cl | > 100 | > 100 | 42 | – | 50.1 | > 100 | 73.2 | 46.4 | > 100 | > 100 | – | 46.2
39 | CCOP(=O)(OCC)Oc1c(OC)c2[nH]c(C(=O)OC)cc2c2c(C(=O)O)c[nH]c12 | 81.3 | > 100 | > 100 | > 100 | > 100 | > 100 | > 100 | > 100 | > 100 | > 100 | – | > 100
40 | COc1ccc(/C=N\N(C)Cc2cccc3ccsc23)cc1 | > 100 | > 100 | > 100 | > 100 | > 100 | > 100 | > 100 | > 100 | > 100 | > 100 | – | > 100
41 | Nn1c(CCCCCCCCc2nnc(-c3c(O)ccc4ccccc34)n2N)nnc1-c1c(O)ccc2ccccc12 | > 100 | > 100 | > 100 | > 100 | > 100 | > 100 | > 100 | > 100 | > 100 | – | > 100 | –
42 | COC(=O)CCc1ccc(CCC(=O)OC)cc1 | – | > 100 | > 100 | > 100 | > 100 | > 100 | – | > 100 | > 100 | > 100 | > 100 | > 100
43 | NCC(=O)Nc1ccccc1 | > 100 | > 100 | > 100 | > 100 | > 100 | > 100 | > 100 | > 100 | > 100 | > 100 | – | > 100
